Test results as given in patent publication US20250002855A1, “METHODS FOR EXPANDING T CELLS FOR THE TREATMENT OF CANCER AND RELATED MALIGNANCIES” (Immatics US, Inc., priority 2020, published 2025).

Columns and labels:
[1] = tested on: tumor-infiltrating lymphocytes; conditions: in the presence of IL-21; after 2 weeks of culture; cited from earlier work
[2] = tested on: γδ T cells; experiment: δ1 and δ2 populations by flow cytometry; format: cell-based, human; conditions: Day 21; culture without vs with zoledronate (5 μM)
Excerpt: Cells were harvested on Day 21 and analyzed by flow cytometry to determine δ1 and δ2 populations.
The presence of δ1 cells as a percentage of live cells is shown for two donors in FIG. 18A & 18B.

Structure (SMILES) | Tcm αβ T cells (CD28+CD62L+) [1] | δ1 and δ2 populations [2]
O=C(CCCCCCC(=O)Nc1ccccc1)NO [SAHA, suberoylanilide hydroxamic acid] | increase Tcm αβ T cells | –
O=P(O)(O)C(O)(Cn1ccnc1)P(=O)(O)O [zoledronate] | – | lack of zoledronate in the culture results in a polyclonal population
